In publication PMC5337940, “Sansanmycin natural product analogues as potent and selective anti-mycobacterials that inhibit lipid I biosynthesis” (Nature Communications, 2017):
Converted amounts (≈) assume the structure as drawn. Read-outs that look alike come from different tables or passages of the source.

Assays:
Mtb H37Rv = test: Resazurin reduction microplate assay, growth inhibition of Mtb H37Rv; format: cell-based, Mycobacterium tuberculosis; details: average of two independent experiments, each in triplicate; for MIC50: read-out: MIC50 Mtb H37Rv
Mtb MurX = Mtb MurX (Mycobacterium tuberculosis, UniProt P9WMW7); test: Radiochemical (TLC) MurX-MurG coupled inhibition assay in Mtb mc2 6230 membranes; format: biochemical; details: 200 nM inhibitor, decrease in lipid II formation
Sequence of Mtb MurX (P9WMW7 whole entry): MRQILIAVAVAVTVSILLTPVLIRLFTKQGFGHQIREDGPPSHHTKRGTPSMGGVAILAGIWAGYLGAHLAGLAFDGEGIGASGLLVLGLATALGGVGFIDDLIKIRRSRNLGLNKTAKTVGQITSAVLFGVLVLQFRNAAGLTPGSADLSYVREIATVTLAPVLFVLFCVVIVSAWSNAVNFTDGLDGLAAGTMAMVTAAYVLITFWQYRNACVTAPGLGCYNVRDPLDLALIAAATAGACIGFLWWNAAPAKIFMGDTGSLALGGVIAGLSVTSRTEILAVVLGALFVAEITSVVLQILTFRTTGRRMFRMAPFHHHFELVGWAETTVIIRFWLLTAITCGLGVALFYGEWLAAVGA

HEK293 cells = test: Cytotoxicity counter-screen, resazurin reduction microplate assay; format: cell-based; details: Homo sapiens, tested up to 200 μM, read-out: MIC50 (HEK293)
[1] = Mycobacterium tuberculosis, H37RV

C[C@@H]([C@H](NC(=O)[C@H](Cc1ccc(C(F)(F)F)cc1)NC(=O)N[C@@H](Cc1c[nH]c2ccccc12)C(=O)O)C(=O)NC[C@H]1C[C@@H](O)[C@H](n2ccc(=O)[nH]c2=O)O1)N(C)C(=O)CN [Compound 30]
MIC50 (Mtb H37Rv; [1]): 0.2 ± 0.06 µM (≈ 0.169 µg/mL)
inhibition at 0.2 µM (Mtb MurX): 100%
CC50 (HEK293 cells): > 200 µM

C[C@@H]([C@H](NC(=O)[C@H](Cc1cccnc1)NC(=O)N[C@@H](Cc1c[nH]c2ccccc12)C(=O)O)C(=O)NC[C@H]1C[C@@H](O)[C@H](n2ccc(=O)[nH]c2=O)O1)N(C)C(=O)CN [Compound 32]
inhibition at 0.2 µM (Mtb MurX): 52%
CC50 (HEK293 cells): > 200 µM

CSCC[C@H](NC(=O)N[C@@H](Cc1c[nH]c2ccccc12)C(=O)O)C(=O)N[C@H](C(=O)NC[C@H]1C[C@@H](O)[C@H](n2ccc(=O)[nH]c2=O)O1)[C@H](C)N(C)C(=O)[C@@H](N)c1cccc(O)c1 [Compound 4, Dihydrosansanmycin A]
MIC50 (Mtb H37Rv; [1]): 0.5 ± 0.05 µM (≈ 0.426 µg/mL)
inhibition at 0.2 µM (Mtb MurX): 68%
CC50 (HEK293 cells): > 200 µM

CC(C)C[C@H](NC(=O)N[C@@H](Cc1c[nH]c2ccccc12)C(=O)O)C(=O)N[C@H](C(=O)NC[C@H]1C[C@@H](O)[C@H](n2ccc(=O)[nH]c2=O)O1)[C@H](C)N(C)C(=O)[C@@H](N)Cc1ccccc1 [Compound 7]
MIC50 (Mtb H37Rv; [1]): 4.05 ± 0.63 µM (≈ 3.37 µg/mL)
inhibition at 0.2 µM (Mtb MurX): 27%
CC50 (HEK293 cells): > 200 µM

C[C@@H]([C@H](NC(=O)[C@@H](NC(=O)N[C@@H](Cc1c[nH]c2ccccc12)C(=O)O)C1CCCCC1)C(=O)NC[C@H]1C[C@@H](O)[C@H](n2ccc(=O)[nH]c2=O)O1)N(C)C(=O)CN [Compound 24]
MIC50 (Mtb H37Rv; [1]): 0.51 ± 0.1 µM (≈ 0.392 µg/mL)
inhibition at 0.2 µM (Mtb MurX): 41%
CC50 (HEK293 cells): > 200 µM

C[C@@H]([C@H](NC(=O)[C@@H](NC(=O)N[C@@H](Cc1c[nH]c2ccccc12)C(=O)O)c1ccccc1)C(=O)NC[C@H]1C[C@@H](O)[C@H](n2ccc(=O)[nH]c2=O)O1)N(C)C(=O)CN [Compound 34]
MIC50 (Mtb H37Rv; [1]): > 6.25 µM
inhibition at 0.2 µM (Mtb MurX): 51%
CC50 (HEK293 cells): > 200 µM

CCCCC[C@H](NC(=O)N[C@@H](Cc1c[nH]c2ccccc12)C(=O)O)C(=O)N[C@H](C(=O)NC[C@H]1C[C@@H](O)[C@H](n2ccc(=O)[nH]c2=O)O1)[C@H](C)N(C)C(=O)CN [Compound 23]
MIC50 (Mtb H37Rv; [1]): 0.51 ± 0.12 µM (≈ 0.385 µg/mL)
inhibition at 0.2 µM (Mtb MurX): 59%
CC50 (HEK293 cells): > 200 µM

CC(C)C[C@H](NC(=O)N[C@@H](Cc1c[nH]c2ccccc12)C(=O)O)C(=O)N[C@H](C(=O)NC[C@H]1C[C@@H](O)[C@H](n2ccc(=O)[nH]c2=O)O1)[C@H](C)N(C)C(=O)[C@H](C)N [Compound 13]
MIC50 (Mtb H37Rv; [1]): 0.6 ± 0.14 µM (≈ 0.453 µg/mL)
MIC50 (Mtb H37Rv): 0.60 µM (≈ 0.453 µg/mL)
inhibition at 0.2 µM (Mtb MurX): 50%
CC50 (HEK293 cells): > 200 µM

CC(C)C[C@H](NC(=O)N[C@@H](Cc1c[nH]c2ccccc12)C(=O)O)C(=O)N[C@H](C(=O)NC[C@H]1C[C@@H](O)[C@H](n2ccc(=O)[nH]c2=O)O1)[C@H](C)N(C)C(=O)[C@@H](N)[C@@H](C)O [Compound 17]
MIC50 (Mtb H37Rv; [1]): 1.35 ± 0.07 µM (≈ 1.06 µg/mL)
MIC50 Mtb H37Rv (Mtb H37Rv): 0.95 to 1.35 µM
inhibition at 0.2 µM (Mtb MurX): 20%
CC50 (HEK293 cells): > 200 µM

C[C@@H]([C@H](NC(=O)[C@H](Cc1ccc(O)cc1)NC(=O)N[C@@H](Cc1c[nH]c2ccccc12)C(=O)O)C(=O)NC[C@H]1C[C@@H](O)[C@H](n2ccc(=O)[nH]c2=O)O1)N(C)C(=O)CN [Compound 31]
MIC50 (Mtb H37Rv; [1]): 0.44 to 0.98 µM (≈ 0.348 to 0.776 µg/mL)
MIC50 Mtb H37Rv (Mtb H37Rv): 0.52 ± 0.02 µM (≈ 0.412 µg/mL)
inhibition at 0.2 µM (Mtb MurX): 40%
CC50 (HEK293 cells): > 200 µM

CC(C)C[C@H](NC(=O)N[C@@H](Cc1c[nH]c2ccccc12)C(=O)O)C(=O)N[C@H](C(=O)NC[C@H]1C[C@@H](O)[C@H](n2ccc(=O)[nH]c2=O)O1)[C@H](C)N(C)C(=O)[C@@H](N)Cc1cccnc1 [Compound 8]
MIC50 (Mtb H37Rv; [1]): 5.85 ± 2.33 µM (≈ 4.87 µg/mL)
inhibition at 0.2 µM (Mtb MurX): 5%
CC50 (HEK293 cells): > 200 µM

C[C@@H]([C@H](NC(=O)[C@H](CCc1ccccc1)NC(=O)N[C@@H](Cc1c[nH]c2ccccc12)C(=O)O)C(=O)NC[C@H]1C[C@@H](O)[C@H](n2ccc(=O)[nH]c2=O)O1)N(C)C(=O)CN [Compound 35]
MIC50 (Mtb H37Rv; [1]): 1.08 ± 0.1 µM (≈ 0.853 µg/mL)
CC50 (HEK293 cells): > 200 µM

CC(C)C[C@H](NC(=O)N[C@@H](Cc1c[nH]c2ccccc12)C(=O)O)C(=O)N[C@H](C(=O)NC[C@H]1C[C@@H](O)[C@H](n2ccc(=O)[nH]c2=O)O1)[C@H](C)N(C)C(=O)[C@@H](N)CC1CCCCC1 [Compound 10]
MIC50 (Mtb H37Rv; [1]): 1 ± 0.3 µM (≈ 0.838 µg/mL)
MIC50 Mtb H37Rv (Mtb H37Rv): 0.95 to 1.35 µM
inhibition at 0.2 µM (Mtb MurX): 41%
CC50 (HEK293 cells): > 200 µM

C[C@H](O)[C@H](NC(=O)N[C@@H](Cc1c[nH]c2ccccc12)C(=O)O)C(=O)N[C@H](C(=O)NC[C@H]1C[C@@H](O)[C@H](n2ccc(=O)[nH]c2=O)O1)[C@H](C)N(C)C(=O)CN [Compound 26]
MIC50 (Mtb H37Rv; [1]): 2.8 µM (≈ 2.04 µg/mL)
MIC50 Mtb H37Rv (Mtb H37Rv): 2.80 ± 0.70 µM (≈ 2.04 µg/mL)
inhibition at 0.2 µM (Mtb MurX): 40%
CC50 (HEK293 cells): > 200 µM

CC(C)C[C@H](NC(=O)N[C@@H](Cc1c[nH]c2ccccc12)C(=O)O)C(=O)N[C@H](C(=O)NC[C@H]1C[C@@H](O)[C@H](n2ccc(=O)[nH]c2=O)O1)[C@H](C)N(C)C(=O)CN [Compound 12]
MIC50 (Mtb H37Rv; [1]): 0.63 ± 0.17 µM (≈ 0.467 µg/mL)
MIC50 (Mtb H37Rv): 0.63 µM (≈ 0.467 µg/mL)
inhibition at 0.2 µM (Mtb MurX): 9%
CC50 (HEK293 cells): > 200 µM
